Data: patent US5095013A, “2-(2-vinylpyrrolidinylthio)carbapenem derivatives” (Banyu Pharmaceutical Co., Ltd., priority 1989, dated 1992)
≈ marks a conversion by molar mass, not a printed value. Read-outs that look alike come from different tables or passages of the source.

What was measured:
Ps. aeruginosa MB5000 = assay: in vitro antibacterial activity, agar plate dilution method (MIC); format: cell-based; details: Pseudomonas aeruginosa, read-out: Minimum inhibitory concentration (MIC)
Procedure: (§1) One platinum loopful of each test microorganism incubated overnight in Mueller Hinton broth, was inoculated to Mueller Hinton agar (inoculum size: 10^6 CFU/ml). Such culture media contained antibacterial agents in various concentrations. After incubation at 37° C. for 16 hours, the minimum inhibitory concentrations (MIC: μg/ml) were measured.

E. cloacae Nek39 = assay: as above; format: cell-based; details: Enterobacter cloacae, read-out: Minimum inhibitory concentration (MIC)
Procedure: as §1

S. aureus MB4970 = assay: as above; format: cell-based; details: Staphylococcus aureus, read-out: Minimum inhibitory concentration (MIC)
Procedure: as §1

[1] = tested on: renal dehydropeptidase I (DHP-I); format: in vitro ADME
Excerpt: The DHP-I susceptivity was quantitatively analyzed by the method by Kropp et al., Antimicrob., Agents Chemother., vol. 22, p. 62-70 (1982), whereby the smaller the numerical value representing the ratio to imipenem (=1.0), the higher the stability.

[2] = tested on: methicillin resistant Staphylococcus aureus; details: prior art compounds; cited from earlier work
DHP-I [3] = details: cited from earlier work
DHP-I [4] = details: cited from earlier work; remark: listed apart in the source
[5] = cited from earlier work
[6] = due to the decomposition products; cited from earlier work
β-lactamase = details: cited from earlier work
[7] = tested on: imipenem resistant Pseudomonas aeruginosa; details: cited from earlier work
[8] = tested on: gram positive bacteria and gram negative bacteria; details: cited prior art; cited from earlier work
[9] = tested on: highly methicillin resistant Staphylococcus aureus resistant to imipenem; details: cited from earlier work
[10] = in vivo; cited from earlier work

Compound: C[C@@H](O)[C@H]1C(=O)N2C(C(=O)O)=C(S[C@@H]3CN[C@H](/C=C4\CCNC4=O)C3)[C@H](C)[C@H]12 [Example 12, (1R,5S,6S)-6-[(R)-1-Hydroxyethyl]-1-methyl-2-[(2S,4S)-2[(E)-(2-oxopyrrolidin-3-ylidene)methyl]pyrrolidin-4-ylthio]-1-carbapen-2-em-3-carboxylic acid]
- MIC (Ps. aeruginosa MB5000; Ps. aeruginosa MB5000, Mueller Hinton agar, inoculum 10^6 CFU/ml, 37° C., 16 hours): 0.39 µg/mL (≈ 0.957 µM)
- MIC (E. cloacae Nek39; E. cloacae Nek39, Mueller Hinton agar, inoculum 10^6 CFU/ml, 37° C., 16 hours): 0.025 µg/mL (≈ 0.0614 µM)
- MIC (S. aureus MB4970; S. aureus MB4970, Mueller Hinton agar, inoculum 10^6 CFU/ml, 37° C., 16 hours): 0.025 µg/mL (≈ 0.0614 µM)
- DHP-I susceptivity [1]: 0.04

Compound: C[C@@H](O)[C@H]1C(=O)N2C(C(=O)O)=C(S[C@@H]3CN[C@H](C(=O)N(C)C)C3)[C@H](C)[C@H]12 [meropenem]
- antibacterial activity against highly methicillin resistant Staphylococcus aureus (in words) [2]: not adequate
- stability against DHP-I (in words) (DHP-I [3]; prior art compounds): substantially improved

Compound: C[C@@H](O)[C@H]1C(=O)N2C(C(=O)O)=C(SCCN=CN)C[C@H]12 [Imipenem, imipenem]
- decomposition by DHP-I in the human kidney (DHP-I [4]): likely to be decomposed by DHP-I in the human kidney
- stability in the solid form or in an aqueous solution ([5]; compared with thienamycin): remarkably improved over thienamycin
- toxicity against the kidney [6]: presents toxicity against the kidney due to the decomposition products
- β-lactamase resistance (β-lactamase): has β-lactamase resistance
- DHP-I susceptivity [1]: 1.0
- treating effect (in words) [7]: does not show adequate treating effects
- antibacterial activities (in words) [8]: antibacterial activities of an equal or higher level than thienamycin against various types of bacteria
- treating effect (in words) [9]: does not show adequate treating effects

Compound: C[C@@H](O)[C@H]1C(=O)N2C(C(=O)[O-])=C(S[C@@H]3CN[C@H](/C=C/C(N)=O)C3)[C@H](C)[C@H]12.[K+]
- MIC (Ps. aeruginosa MB5000; MB5000, 16 h): 0.39 µg/mL
- MIC (E. cloacae Nek39; NEK39, 16 h): 0.025 µg/mL
- MIC (S. aureus MB4970; MB4970, 16 h): 0.025 µg/mL
- DHP-I susceptivity [1]: 0.2

Compound: C[C@@H](O)[C@H]1C(=O)N2C(C(=O)O)=C(SCCN)C[C@H]12 [thienamycin]
- decomposition by DHP-I (in words) (DHP-I [3]; renal dehydropeptidase I, in vivo): likely to be decomposed by a certain enzyme in vivo such as renal dehydropeptidase I
- chemical stability (in words) ([5]; cited prior art): chemically unstable
- recovery rate in the urine [10]: low
- antibacterial activities (in words) [8]: strong antibacterial activities over a wide range against gram positive bacteria and gram negative bacteria
